Where no end group is shown, it is not given here.
Assays:
4T1 cells = test: Spontaneous lung metastasis clonogenic assay in 4T1 xenograft mouse model; type: in vivo, BALB/c female mice; conditions: 10 mg/kg once a day for eight days, intraperitoneal injection, HIV-TAT fused peptide; versus scrambled control
Method: All experimental procedures were conducted following the Federation of Laboratory Animal Science Association (FELSA) and were approved by the Bar-Ilan University animal use and care committee. Mouse xenograft tumors were generated by injecting 10^6 4T1 cells resuspended in 20% collagen I (BD Biosciences, Franklin Lakes, NJ, USA) in PBS into the lower-left mammary gland of 8-week-old BALB/c female mice. […] 4T1 cells have intrinsic resistance to 6-thioguanine, which enables precise quantification of metastatic cells, even when they are disseminated at sub-microscopic levels at distant organs, upon excision and digestion of selected organs. The clonogenic assay is based on a principle by which one colony represents one metastatic cell. Briefly, spontaneous lung metastasis was measured in BALB/c mice bearing orthotopic 4T1 tumors of equal size (1-1.2 cm in diameter). Lungs were excised and minced and plated in RPMI/10% FBS in the presence of 6-thioguanine to select for tumor cells only. Cells were plated in a 5% CO2 incubator at 37° C. for 14 days to form 4T1 colonies. On day 14 after plating, the medium was removed from dishes, and colonies were fixed in 4% paraformaldehyde for one hour at room temperature. Colonies were then stained in 2% crystal violet solution and thoroughly washed with PBS. Plates were allowed to air dry, and colonies in each plate were quantified. […]

[1] = system: interaction between Pyk2 and cortactin in invadopodia; test: Acceptor photobleaching FRET assay; type: cell-based, human; conditions: 0.1, 1, 5 μM peptide; mature matrix-degrading invadopodia
Method: Acceptor photobleaching experiments were performed as described in Genna et al., 2018 (supra). In brief, cortactin-TagRFP MDA-MB-231 cells were plated on Alexa 405 gelatin in a medium containing Pyk2-PRR or scrambled control peptides at 0.1, 1, and 5 μM concentration, fixed, and immunostained with pY402-Pyk2/Alexa Fluor 488-goat anti-rabbit (donor) and cortactin/Alexa Fluor 555-goat anti-mouse (acceptor). As a control, cells were stained with Tks5/Alexa Fluor 488-goat anti-rabbit (donor) and cortactin/Alexa Fluor 555-goat anti-mouse (acceptor). Co-localization of cortactin with degradation holes in Alexa 405-labeled gelatin was used to identify mature degrading invadopodia. For all FRET experiments, cells were imaged in PBS at room temperature on a laser-scanning inverted confocal microscope (Zeiss LSM780; 60×, NA 1.4, oil objective). A region of interest surrounding invadopodia was bleached using 100% 561-nm laser power (acceptor channel), and images were acquired in both the 488 nm and the 561 nm channels before and after bleaching. FRET efficiency was calculated as the E=1−(donor pre/donor post) in background-subtracted images and was corrected for fluctuations in laser power and donor bleaching in ImageJ.

MDA-MB-231 cells [2] = test: Invadopodium precursor formation assay; type: cell-based, human; conditions: 4 h, 0.1, 1 or 5 μM peptide
Method: The invadopodium precursor formation assay was performed as described in Genna et al., 2018 (supra). Briefly, gelatin was conjugated to Alexa 405 dye (Thermo Fisher Scientific). MatTek dishes were treated with 1 N HCl and coated with 50 μg/ml poly-L-lysine. A 0.2% gelatin solution was prepared in PBS, and a 1:20 mixture of Alexa 405-labeled gelatin/unlabeled gelatin was warmed to 37° C. before addition to the poly-L-lysine coated plates. Gelatin was cross-linked with 0.01% glutaraldehyde followed by quenching with 5 mg/ml sodium borohydride. 125,000 MDA-MB-231 cells were plated on Alexa 405-labeled gelatin plates in the presence of 0.1, 1, or 5 μM of Pyk2-PRR peptides or scrambled control for 4 h. At the end of incubation, cells were fixed in 3.7% paraformaldehyde, permeabilized with 0.1% Triton X-100, blocked with 1% FBS, 1% BSA in PBS, and labeled with anti-Tks5 and anti-cortactin. Images were acquired using an inverted fluorescent microscope (Leica AF6000; 63×, NA 1.4, oil objective, Leica LAS AF acquisition software) (Wetzlar, Germany) equipped with an ORCA-Flash 4.0 V2 digital CMOS camera (Hamamatsu Photonics, Shizuoka, Japan).

MDA-MB-231 cells [3] = test: ECM degradation assay; type: cell-based, human; conditions: 24 h on fluorescent fibronectin/gelatin matrix; compared to control peptide
Method: The in vitro matrix degradation assay was performed as described in Genna et al., 2018 (supra). Briefly, MatTek dishes were treated with 2.5% gelatin/2.5% sucrose, cross-linked with 0.5% glutaraldehyde, treated with 10 μg/ml of fluorescently labeled fibronectin (Alexa 568; Invitrogen, Thermo Fischer Scientific), and then with 1 mg/ml NaBH4 in PBS. 125,000 cells were plated on the fibronectin/gelatin matrix in Pyk2-PRR or control peptides and allowed to degrade for 24 h. Cells were then fixed in 3.7% paraformaldehyde, and random fields were imaged using an inverted fluorescent microscope (Leica AF6000; 40×, NA 1.3, oil objective). ECM degradation was analyzed by quantifying the average degraded area in pixels per field using ImageJ.

[4] = target: T1, cortactin-SH3 domain (mouse cortactin SH3 domain, GenBank ID U03184; nucleotides 1468-1641) (mouse, UniProt Q60598 490-546, isotopically labeled (15N, 13C and/or 2H) for NMR); test: NMR chemical shift titration
T1 construct: domain: SH3 domain; also called purified cortactin-SH3

[5] = target: T1, cortactin-SH3 domain (mouse cortactin …); test: NMR chemical shift titration (1H,15N-HSQC), unlabeled peptide into 15N-SH3

T1 sequence (Q60598 490-546 limits assumed, one chain of several): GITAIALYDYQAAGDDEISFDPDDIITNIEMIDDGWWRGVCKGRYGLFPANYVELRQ

| Molecule | lung metastases (6-thioguanine-resistant colonies) (4T1 cells) | interaction between Pyk2 and cortactin in invadopodia (FRET) [1] | mature, matrix-degrading invadopodia (MDA-MB-231 cells [2]; co-localization with degradation regions) | immature invadopodium precursors (MDA-MB-231 cells [2]; cortactin and Tks5 co-localization) | matrix degradation (degradation area) (MDA-MB-231 cells [3]) | fold higher affinity than Pyk2-PRR3 [4] [fold] | Kd [5] [µM] |
| --- | --- | --- | --- | --- | --- | --- | --- |
| TAFQEPAPKASQAQYRPPP [Pyk2 super-mutant, TAFQEPAPKASQAQYRPPP] | no significant differences in colony number | does not significantly inhibit | small but significant reduction | no significant effect | small but significant reduction | – | – |
| TAFQEPPPKPSRPKYRPPP (Unlabeled synthetic peptide as used in the NMR experiments; Positions count on UniProt Q14289) [Pyk2-PRR2 peptide (SEQ ID NO: 1)] | – | – | – | – | – | 16 | 40 |

Source: patent US20240368566A1, “PYK2-DERIVED PEPTIDES FOR INHIBITING INVADOPODIA-MEDIATED CANCER METASTASIS” (BAR-ILAN UNIVERSITY, priority 2023, published 2024)
